Earlier results, collected in patent US20090004170A1, “COMPOSITION COMPRISING COENZYME Q10” (Kaneka Corporation, priority 2007, published 2009).

Key:
[1] = not given; remark: listed apart in the source

- absorbability by oral ingestion: extremely low
- solubility in water [1]: sparingly soluble
SMILES: COC1=C(OC)C(=O)C(C/C=C(\C)CC/C=C(\C)CC/C=C(\C)CC/C=C(\C)CC/C=C(\C)CC/C=C(\C)CC/C=C(\C)CC/C=C(\C)CC/C=C(\C)CCC=C(C)C)=C(C)C1=O [coenzyme Q10]
